Test results published in publication PMC10449632, “Structural basis for translation inhibition by the glycosylated drosocin peptide” (Nature Chemical Biology, 2023).
No end group written: not given here. *: point of attachment. β‑D‑cellobiosyl = OC[C@H]1O[C@@H](O[C@H]2[C@H](O)[C@@H](O)[C@H](*)O[C@@H]2CO)[C@H](O)[C@@H](O)[C@@H]1O; β‑D‑lactosyl = OC[C@H]1O[C@@H](O[C@H]2[C@H](O)[C@@H](O)[C@H](*)O[C@@H]2CO)[C@H](O)[C@@H](O)[C@H]1O; β‑D‑maltosyl = OC[C@H]1O[C@H](O[C@H]2[C@H](O)[C@@H](O)[C@H](*)O[C@@H]2CO)[C@H](O)[C@@H](O)[C@@H]1O; α‑D‑GlcNAc = CC(=O)N[C@@H]1[C@@H](O)[C@H](O)[C@@H](CO)O[C@@H]1*; βGlc = OC[C@H]1O[C@@H](*)[C@H](O)[C@@H](O)[C@@H]1O; βGal = OC[C@H]1O[C@@H](*)[C@H](O)[C@@H](O)[C@H]1O

Assays:
[1] = system: E. coli Keio wt (BW25113); assay: Antibiotic susceptibility (growth) assay, E. coli Keio wild-type; assay type: cell-based, Escherichia coli; details: 30 μM peptide; for Average of normalized growth: average of three biological replicates; for growth inhibition in rich medium: rich (LB) medium
Description: (§1) Many PrAMPs use the SbmA transporter to pass through the E. coli inner membrane[4],[10],[31]; however, whether drosocin also uses SbmA remains, to our knowledge, unknown. To address this, we monitored the effect of the presence of diverse drosocin peptides (Fig. 1a,b and Supplementary Fig. 1a) on the growth of the wild-type E. coli strain BW25113 containing SbmA or lacking SbmA (ΔsbmA) (Fig. 1c,d). We compared unmodified drosocin (Dro) with various modified forms (Fig. 1a,b). The modified forms included the naturally occurring Dro1 and Dro2 that carry either a monosaccharide (α-D-GalNAc) or disaccharide (β-D-Gal(1→3)-α-D-GalNAc) attached to Thr11, respectively (Fig. 1b). In addition, we examined the previously reported[23],[24] drosocin derivatives bearing β-D-Maltosyl (Dro3), α-D-GlcNAc (Dro4), β-D-Gal (Dro5), β-D-Glc (Dro6), β-D-Lactosyl (Dro7) and β-D-Cellobiosyl (Dro8) modifications on Thr11 (Fig. 1a,b and Supplementary Fig. 1a). Finally, we also included in our analysis the synthetic unmodified drosocin derivative with proline substitutions at positions 7, 11 and 12 (Dro-3P) (Fig. 1a), which was previously reported to have similar antimicrobial activity to the monosaccharide form of drosocin[25]. Growth was monitored in both rich (LB) and minimal medium in the presence of 30 μM of each peptide and normalized with the growth in the absence of the compounds (Methods). […] We also observed no inhibition for Dro2 nor for any of the β-linked disaccharides (Dro3, Dro6 or Dro7). […] By contrast, all drosocin peptides inhibited growth of the E. coli BW25113 strain in minimal medium, albeit to different extents (Fig. 1d).
(§2) Strains E. coli Keio wild-type and E. coli Keio ΔsbmA used from the Keio knockout collection (Horizon, https://horizondiscovery.com). Wild-type E. coli SQ110 (ΔrrnGADBHC(ptRNA67))[47] and SQ171 (ΔrrnGADEHBC(pKK3535, ptRNA67))[47] strains and related mutants E. coli SQ110 A2059G and E. coli SQ171 A2503G were obtained from the previous Api137 study. E. coli strains SQ171 bearing A752G, U2609C and A752G:U2609C mutations[43] and E. coli SQ171 U2609G[48] were generated previously.
(§3) The susceptibility of E. coli strains to compounds was evaluated by monitoring the bacterial growth in presence of increasing concentrations of the compound of interest. In brief, bacteria were inoculated in a total volume of 100 μl of medium contained in a well of a 96-well microplate (round bottom, with cap, sterile; Sarstedt). The medium used was either LB, as rich medium, or ATCC medium (778 Davis and Mingioli glucose minimal medium), as minimal medium. Before inoculation, bacteria were grown up to exponential phase and then inoculated into the culture mix, containing selective antibiotic if necessary, with an initial optical density at 600 nm (OD600) of 0.05. Values measured from wells containing just the medium were used as a blank. The growth in each well was monitored by measuring the OD600 every 10 minutes for a total of 20 hours at 37 °C with shaking using a plate reader (Tecan Infinite 200 PRO). The inhibition resulting from a compound’s concentration was evaluated by normalizing the OD600 at t = 12 hours (corresponding to the end of the log phase) from the treated culture to the untreated one. For each compound, the concentrations tested were 5 μM, 10 μM and 30 μM. Each single titration assay was done in triplicate with individually prepared culture mixes. For each concentration, the standard deviation was calculated, taking into account each single replica and its specific technical error from the plate reader.

[2] = system: ribosomes at the stop codon of MLIF-UAA mRNA in the presence of RF1; assay: Toeprinting assay on MLIF*-mRNA with RF1; assay type: biochemical, Escherichia coli; details: for Relative stop band intensity signal: 30 μM compound, MLIF*-mRNA, plotted values
Procedure: (§4) To ascertain which step during protein synthesis is affected by drosocin, we performed toeprinting assays, where reverse transcription is used to monitor the position of ribosomes on a defined mRNA[34].
(§5) Toeprinting reactions were performed as described previously. In brief, reactions were performed with 6 μl of PURExpress ΔRF123 in vitro protein synthesis system (NEB) in the presence of 1× RF3 and either 1× or 10× of RF1 or RF2 (relative to the manufacturer’s recommendation). The reactions were carried out on an MLIF-UAA-toeprint template (5′-[…]-3′, ORF start codon and stop codon are underlined bold), containing T7 promoter, a ribosome binding site, an MLIF-coding ORF and the NV1* primer binding site. The template is a version of the ErmBL template with a truncated ORF and addition of a isoleucine coding codon at the third position in the ORF. The template was generated by polymerase chain reaction of two overlapping 77-nt- and 78-nt-long primers. The reactions contained 30 ng of the MLIF-UAA-toeprint DNA template. The reactions were supplemented with Api137, thiostrepton or one of the drosocin derivates as specified. The transcription–translation reactions were incubated for 15 minutes at 37 °C. The reverse transcription on the MLIF-short-UAA toeprint template was carried out using AMV RT and primer NV*1-Alexa 647 (5′-[…]-3′). The transcription–translation reactions were incubated with AMV RT and NV*1-Alexa 647 for 20 minutes at 37 °C. mRNA degradation was carried out by the addition of 1 µl of 5 M NaOH. The reactions were neutralized with 0.7 µl of 25% HCl, and nucleotide removal was performed with the QIAquick Nucleotide Removal Kit (Qiagen). The samples were dried under vacuum for 2 hours at 60 °C for subsequent gel electrophoresis. The 6% acrylamide gels were scanned on a Typhoon scanner (GE Healthcare).

[3] = system: ribosomes at the stop codon of MLIF-UAA mRNA in the presence of RF2; assay: Toeprinting assay on MLIF*-mRNA with RF2; assay type: biochemical, Escherichia coli; details: Fig 1h, RF2 (10X), 30 μM compound, plotted values
Procedure: as §4, §5

[4] = system: in vitro translation, E. coli PURExpress system, firefly luciferase (Fluc) mRNA; assay: In vitro translation assay with Fluc reporter; assay type: biochemical, Escherichia coli
Procedure: To investigate this, we compared the effect of increasing concentrations (0–150 μM) of modified Dro1 and Dro2 with unmodified Dro, Dro-3P and Api137 using a cell-free in vitro translation system and firefly luciferase (Fluc) mRNA as a template (Fig. 1e), as we have used previously for assessing the activity of other PrAMPs[4],[6],[8],[9],[32],[33].
The in vitro translation assay was carried out as described previously[4],[8] using the E. coli PURExpress system (New England Biolabs (NEB), E6800S). Then, 1 µl of antibiotic solution was added to 5 µl of PURExpress reaction mix. Each reaction contained 10 ng μl^−1 of mRNA encoding the Fluc, which was in vitro transcribed from a pIVEX-2.3MCS vector containing the Fluc gene using T7 polymerase (Thermo Fisher Scientific). The reaction mix was incubated for 30 minutes at 32 °C while shaking (600 r.p.m.). Reactions were stopped with 5 µl of kanamycin (50 mg ml^−1) and transferred into a 96-well microplate (Greiner Lumitrac, non-binding, white, chimney). Next, 40 µl of luciferase assay substrate solution (Promega, E1501) was added, and luminescence was measured using a plate reader (Tecan Infinite 200 PRO). Nuclease-free water was added instead of antibiotic as control. Absolute luminescence values were normalized using reactions without antibiotic. All assays were done as triplicates with individually prepared reaction mix.

[5] = system: E. coli Keio ∆sbmA (BW25113 ΔsbmA); assay: Antibiotic susceptibility (growth) assay, E. coli Keio ΔsbmA; assay type: cell-based, Escherichia coli; details: 30 μM peptide, average of three biological replicates
Description: as §1, §2, §3

Substance	Average of normalized growth ([1]; LB rich medium) [%]	Average of normalized growth ([1]; Minimal medium) [%]	growth inhibition in rich medium [1]	Relative stop band intensity signal ([2]; Fig 1f, RF1 (1X))	Relative stop band intensity signal ([2]; Fig 1g, RF1 (10X))	Relative stop band intensity signal [3]	maximum inhibition of in vitro translation ([4]; at the highest concentration tested of 150 μM, Fluc mRNA, luminescence) [%]	Average of normalized growth ([5]; LB rich medium) [%]	Average of normalized growth ([5]; Minimal medium) [%]	stalling of ribosomes at the stop codon ([2]; toeprinting, 30 μM peptide, 1× or 10× RF1 (trend also with ten-fold RF2))	activity in in vitro translation assays ([4]; Fluc reporter, increasing concentrations of peptide)
Dro2: naturally occurring drosocin carrying disaccharide β-D-Gal(1→3)-α-D-GalNAc attached to Thr11 (GKPRPYSPRPTSHPRPIRV; not fully specified (residue 11); UniProt P36193 22-40, looked up)	92	25	no inhibition	0.3007	0.625	0.06699	40	96	101		
Dro3: drosocin derivative bearing β-D-Maltosyl on Thr11 (GKPRPYSPRPT(β‑D‑maltosyl)SHPRPIRV; UniProt P36193 22-40, looked up)	97	41	no inhibition	0.2727	0.5086	0.02902		97	105		
Dro4: drosocin derivative bearing α-D-GlcNAc on Thr11 (GKPRPYSPRPT(α‑D‑GlcNAc)SHPRPIRV; UniProt P36193 22-40, looked up)	60	38	growth inhibition	0.3375	0.6077	0.166		97	103	to a lesser extent	
Dro5: drosocin derivative bearing β-D-Gal on Thr11 (GKPRPYSPRPT(βGal)SHPRPIRV; UniProt P36193 22-40, looked up)	93	24	no inhibition	0.2051	0.5557	0.04941		100	107		
Dro6: drosocin derivative bearing β-D-Glc on Thr11 (GKPRPYSPRPT(βGlc)SHPRPIRV; UniProt P36193 22-40, looked up)	94	72	no inhibition	0.04582	0.4077	0.01282		99	106		
Dro7: drosocin derivative bearing β-D-Lactosyl on Thr11 (GKPRPYSPRPT(β‑D‑lactosyl)SHPRPIRV; UniProt P36193 22-40, looked up)	97	50	no inhibition	0.1333	0.3035	0.0472		101	109		
Dro8: drosocin derivative bearing β-D-Cellobiosyl on Thr11 (GKPRPYSPRPT(β‑D‑cellobiosyl)SHPRPIRV; UniProt P36193 22-40, looked up)	97	85		0.1518	0.3011	0.03669		102	112		
Dro-R18A (GKPRPYSPRPTSHPRPIAV; ends and bridges not checked; UniProt P36193 22-40, looked up, variant R18A)											complete loss of activity
